# Measurements as given in the supplement of paper PMC10307832.
# Columns and labels:
# Assay in all cases: relative viability (nuclei count vs DMSO), 5 days (fraction); higher = more cells survive
# AGI-6780 + Vorinostat = compound: O=C(Nc1cccc(C(F)(F)F)c1)Nc1cc(S(=O)(=O)NC2CC2)ccc1-c1ccsc1 [AGI-6780] + O=C(CCCCCCC(=O)Nc1ccccc1)NO [Vorinostat] (partner 1 µM)
# Method in brief: (§1)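 A single step with final 0.05% Triton X-100, 1% formaldehyde and 1 ug/ml Hoechst fixed the cells and stained nuclei 5 days after treatment. Lung cancer cell lines in 1536-well plates had been treated by pin tool the day after seeding with one drug alone or a fixed anchor-drug dose plus five library-drug doses (not always all listed) in √10 steps, and nuclei were counted on 4× images. Relative viability is the ratio of nuclei in treated wells to nuclei in vehicle wells, taken as the median of duplicate plates.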
# AGI-6780 + Pemetrexed = compound: O=C(Nc1cccc(C(F)(F)F)c1)Nc1cc(S(=O)(=O)NC2CC2)ccc1-c1ccsc1 [AGI-6780] + Nc1nc2[nH]cc(CCc3ccc(C(=O)N[C@@H](CCC(=O)O)C(=O)O)cc3)c2c(=O)[nH]1 [Pemetrexed] (partner 0.2 µM)
# Method in brief: as §1
# AGI-6780 + Dasatinib = compound: O=C(Nc1cccc(C(F)(F)F)c1)Nc1cc(S(=O)(=O)NC2CC2)ccc1-c1ccsc1 [AGI-6780] + Cc1nc(Nc2ncc(C(=O)Nc3c(C)cccc3Cl)s2)cc(N2CCN(CCO)CC2)n1 [Dasatinib] (partner 0.075 µM)
# Method in brief: as §1
# AGI-6780 + Palbociclib = compound: O=C(Nc1cccc(C(F)(F)F)c1)Nc1cc(S(=O)(=O)NC2CC2)ccc1-c1ccsc1 [AGI-6780] + CC(=O)c1c(C)c2cnc(Nc3ccc(N4CCNCC4)cn3)nc2n(C2CCCC2)c1=O [Palbociclib] (partner 0.5 µM)
# Method in brief: as §1
Cell Line,relative viability (AGI-6780 + Vorinostat; first compound 0.08 µM),relative viability (AGI-6780 + Vorinostat; first compound 0.253 µM),relative viability (AGI-6780 + Vorinostat; first compound 0.8 µM),relative viability (AGI-6780 + Vorinostat; first compound 2.53 µM),relative viability (AGI-6780 + Vorinostat; first compound 8 µM),relative viability (AGI-6780 + Pemetrexed; first compound 0.08 µM),relative viability (AGI-6780 + Pemetrexed; first compound 0.253 µM),relative viability (AGI-6780 + Pemetrexed; first compound 0.8 µM),relative viability (AGI-6780 + Pemetrexed; first compound 2.53 µM),relative viability (AGI-6780 + Pemetrexed; first compound 8 µM),relative viability (AGI-6780 + Dasatinib; first compound 0.08 µM),relative viability (AGI-6780 + Dasatinib; first compound 0.253 µM),relative viability (AGI-6780 + Dasatinib; first compound 0.8 µM),relative viability (AGI-6780 + Dasatinib; first compound 2.53 µM),relative viability (AGI-6780 + Dasatinib; first compound 8 µM),relative viability (AGI-6780 + Palbociclib; first compound 0.08 µM),relative viability (AGI-6780 + Palbociclib; first compound 0.253 µM),relative viability (AGI-6780 + Palbociclib; first compound 0.8 µM),relative viability (AGI-6780 + Palbociclib; first compound 2.53 µM),relative viability (AGI-6780 + Palbociclib; first compound 8 µM)
NCI-H2126,0.855,0.884,0.79,0.585,0.758,0.743,0.649,0.616,0.676,0.768,0.632,0.657,0.566,0.381,0.586,0.38,0.357,0.36,0.391,0.341
NCI-H2170,0.882,0.996,0.835,–,0.833,0.285,0.267,0.289,–,0.272,0.585,0.713,0.579,0.499,0.59,0.393,0.421,0.43,–,0.376
NCI-H2228,0.641,0.597,0.592,0.502,0.537,0.338,0.343,0.384,0.34,0.391,0.528,0.555,0.468,0.381,0.545,0.726,0.961,0.631,0.667,0.766
NCI-H2342,0.749,0.824,0.874,0.663,1.1,0.777,0.781,0.835,0.715,0.85,0.3,0.369,0.34,0.302,0.317,0.506,0.504,0.509,0.478,0.548
NCI-H2347,0.575,0.587,0.637,0.553,0.784,0.44,0.439,0.428,0.448,0.454,0.323,0.342,0.276,0.307,0.317,0.451,0.469,0.413,0.385,0.481
NCI-H2405,–,0.975,0.943,0.937,0.954,–,1.05,0.902,0.975,1.05,0.217,0.205,0.188,0.194,0.203,–,0.532,0.45,0.47,0.526
NCI-H3122,1.03,0.805,0.843,0.832,1.02,0.209,0.199,0.191,0.195,0.185,0.86,0.904,0.911,0.669,0.955,0.217,0.148,0.172,0.178,0.217
PC-3 [JPC-3],–,0.866,1.08,0.967,0.731,–,1.08,1.26,1.19,0.987,0.992,0.974,0.944,0.922,0.923,–,0.574,0.563,0.566,0.571
PC-14,0.919,0.708,0.845,0.779,0.799,0.143,0.147,0.141,0.16,0.134,0.233,0.256,0.308,0.276,0.24,0.533,0.538,0.568,0.553,0.546
